Consider 19 compounds from publication PMC6009871, “Anion inhibition studies of a beta carbonic anhydrase from the malaria mosquito Anopheles gambiae” (Journal of Enzyme Inhibition and Medicinal Chemistry, 2018).

The target in this assay is T1, AgaCA (Anopheles gambiae, UniProt Q5TU56).
T1 construct: gene 1272966; full-length beta-CA, C-terminal thrombin site and His6 tag (tag removed by thrombin), baculovirus/Sf9
T1 sequence (Q5TU56 1-255): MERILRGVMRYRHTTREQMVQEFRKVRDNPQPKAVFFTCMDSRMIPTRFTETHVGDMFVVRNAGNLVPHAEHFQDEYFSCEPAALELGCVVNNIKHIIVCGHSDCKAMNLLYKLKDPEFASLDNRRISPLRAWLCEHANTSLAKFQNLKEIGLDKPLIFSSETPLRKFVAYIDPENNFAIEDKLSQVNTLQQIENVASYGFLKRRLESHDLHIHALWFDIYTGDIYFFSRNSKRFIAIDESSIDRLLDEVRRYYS
Nature of the assay: biochemical.

Where two headings read alike, the source gives them in different places.

The compound `O=P(O)(O)OP(=O)(O)O` [P2O7^4−] displayed a Ki of 8.52 mM.

In the case of `[O]=[Sn]([OH])[OH]` [SnO3^2−], the Ki (read-out: AgaCA^c) stood at 1.8 mM.

In turn, `O=S(=O)(O)O` [SO4^2−] yielded a Ki of 9.03 mM.

In the case of `O=[Se](=O)(O)O` [SeO4^2−], under “read-out: AgaCA^c”, the Ki was found to be 9.41 mM.

`Cl` [Cl^−]: the Ki (read-out: AgaCA^c) was 8.74 mM.

As for `[O]=[V]([OH])([OH])[O][V](=[O])([OH])[OH]` [V2O7^4−], the Ki (read-out: AgaCA^c) is 7.98 mM.

Take `OB(O)c1ccccc1` [Ph-B(OH)2]: for the setting “read-out: AgaCA^c”, the Ki is 0.047 mM.

With `O=NO` [NO2^−], the Ki (read-out: AgaCA^c) was 4.55 mM.

For the compound `N#CO` [CNO^−], the Ki (read-out: AgaCA^c) was found to be 9.46 mM.

Take `NS(=O)(=O)O` [H2NSO3H]: where the note is “read-out: KI [mM]^e / hCA I^a”, the Ki came out at 0.021 mM.

Regarding `O=[Te](=O)(O)O` [TeO4^2−], the Ki (read-out: AgaCA^c) amounted to 4.96 mM.

With `N#CS` [SCN^−], the Ki came to 6.41 mM.

In the case of `S=C(S)S` [CS3^2−], the Ki (read-out: AgaCA^c) was determined as 8.19 mM.

Consider `O=[N+]([O-])O` [NO3^−], for which the Ki (read-out: AgaCA^c) came out at 6.5 mM.

Regarding `F` [F^−], where the note is “read-out: AgaCA^c”, the Ki was determined as 9.42 mM.

Turning to `N#C[SeH]` [SeCN^−], the Ki (read-out: AgaCA^c) is 8.68 mM.

Regarding `S` [HS^−], under “read-out: AgaCA^c”, the Ki was 25.1 mM.

`NS(N)(=O)=O` [H2NSO2NH2]: the Ki (read-out: AgaCA^c) is 0.054 mM.

On to `CCN(CC)C(=S)S` [Et2NCS2^−], for which the Ki (read-out: AgaCA^c) worked out at 0.65 mM.
